Test results from PMC3853768 (Molecular Pain, 2013).
“Also recorded” adds a separate entry of the source. Positions of bridges follow the written chain, without caps; N, C: chain ends. Residues, ends and D or L forms follow the SMILES beside them.

Legend:
naïve mice (C57Bl/6j) [1] = conditions: mouse, in vivo, sc, 2 mg/kg
mice (C57 Bl6) = conditions: mouse, in vivo, sc
[2] = test system: CFA-injected mice (C57 Bl6); conditions: mouse, in vivo
naïve mice (C57Bl/6j) [3] = conditions: mouse, in vivo, sc, 2 mg/kg; remark: listed apart in the source
[4] = biological target: T1, N-type calcium currents (Cav2.2), mouse DRG neurons (Mus musculus, UniProt O55017); type: cell-based
T1 sequence (O55017 whole entry): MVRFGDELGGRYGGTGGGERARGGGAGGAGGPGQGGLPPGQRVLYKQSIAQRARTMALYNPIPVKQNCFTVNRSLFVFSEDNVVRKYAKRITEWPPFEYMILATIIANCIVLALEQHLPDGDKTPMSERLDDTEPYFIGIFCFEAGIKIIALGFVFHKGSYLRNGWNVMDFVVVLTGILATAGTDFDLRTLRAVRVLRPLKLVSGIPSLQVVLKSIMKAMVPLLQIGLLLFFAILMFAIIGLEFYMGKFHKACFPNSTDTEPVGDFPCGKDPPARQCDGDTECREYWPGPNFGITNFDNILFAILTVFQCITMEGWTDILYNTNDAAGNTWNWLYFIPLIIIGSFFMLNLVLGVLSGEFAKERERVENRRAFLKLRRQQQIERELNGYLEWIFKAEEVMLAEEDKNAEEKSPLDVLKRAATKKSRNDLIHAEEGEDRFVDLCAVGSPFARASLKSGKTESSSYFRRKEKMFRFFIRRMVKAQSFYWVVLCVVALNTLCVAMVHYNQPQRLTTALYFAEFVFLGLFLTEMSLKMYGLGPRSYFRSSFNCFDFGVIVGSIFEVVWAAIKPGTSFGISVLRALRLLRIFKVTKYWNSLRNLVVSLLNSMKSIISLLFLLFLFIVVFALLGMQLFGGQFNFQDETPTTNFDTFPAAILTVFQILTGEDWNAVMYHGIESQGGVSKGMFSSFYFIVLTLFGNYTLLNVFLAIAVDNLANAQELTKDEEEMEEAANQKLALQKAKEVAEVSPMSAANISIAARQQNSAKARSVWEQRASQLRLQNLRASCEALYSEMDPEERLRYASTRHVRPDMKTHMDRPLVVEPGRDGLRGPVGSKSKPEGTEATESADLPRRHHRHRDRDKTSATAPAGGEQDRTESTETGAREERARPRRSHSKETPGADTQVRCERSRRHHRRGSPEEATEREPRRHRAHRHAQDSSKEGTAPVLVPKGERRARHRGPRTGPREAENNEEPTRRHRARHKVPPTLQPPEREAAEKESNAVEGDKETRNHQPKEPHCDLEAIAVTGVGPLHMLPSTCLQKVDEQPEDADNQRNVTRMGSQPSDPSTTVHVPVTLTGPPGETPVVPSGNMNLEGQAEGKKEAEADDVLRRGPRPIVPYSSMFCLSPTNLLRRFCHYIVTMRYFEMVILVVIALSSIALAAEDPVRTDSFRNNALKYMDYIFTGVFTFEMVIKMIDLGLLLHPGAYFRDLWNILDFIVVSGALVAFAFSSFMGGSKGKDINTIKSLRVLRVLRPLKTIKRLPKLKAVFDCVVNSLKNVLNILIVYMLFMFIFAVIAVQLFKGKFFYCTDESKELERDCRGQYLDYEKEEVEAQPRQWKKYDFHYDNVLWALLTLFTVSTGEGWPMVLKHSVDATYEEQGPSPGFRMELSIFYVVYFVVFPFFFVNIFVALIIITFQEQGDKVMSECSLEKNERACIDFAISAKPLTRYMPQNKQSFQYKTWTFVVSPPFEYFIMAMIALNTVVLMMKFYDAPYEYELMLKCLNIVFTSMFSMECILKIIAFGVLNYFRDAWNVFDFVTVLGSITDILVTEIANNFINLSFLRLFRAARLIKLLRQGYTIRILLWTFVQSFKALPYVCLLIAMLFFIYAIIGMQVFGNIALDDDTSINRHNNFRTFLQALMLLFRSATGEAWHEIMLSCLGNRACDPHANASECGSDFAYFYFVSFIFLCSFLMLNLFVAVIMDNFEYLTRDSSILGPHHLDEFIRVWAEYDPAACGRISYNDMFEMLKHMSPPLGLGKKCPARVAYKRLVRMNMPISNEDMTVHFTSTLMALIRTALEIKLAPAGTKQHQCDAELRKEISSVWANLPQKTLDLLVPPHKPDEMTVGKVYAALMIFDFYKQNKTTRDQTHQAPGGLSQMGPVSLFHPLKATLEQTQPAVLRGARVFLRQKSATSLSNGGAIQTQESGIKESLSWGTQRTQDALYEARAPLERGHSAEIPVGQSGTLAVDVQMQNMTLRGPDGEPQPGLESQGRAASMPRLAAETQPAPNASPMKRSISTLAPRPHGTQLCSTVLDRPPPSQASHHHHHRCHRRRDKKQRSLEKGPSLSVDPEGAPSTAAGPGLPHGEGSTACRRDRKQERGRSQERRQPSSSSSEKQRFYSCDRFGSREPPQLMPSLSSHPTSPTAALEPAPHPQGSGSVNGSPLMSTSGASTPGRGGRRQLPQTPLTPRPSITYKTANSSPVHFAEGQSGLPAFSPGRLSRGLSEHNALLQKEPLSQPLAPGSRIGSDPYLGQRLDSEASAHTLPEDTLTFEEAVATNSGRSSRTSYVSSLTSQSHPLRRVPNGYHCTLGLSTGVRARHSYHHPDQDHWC

Cav2.2 channel = conditions: cited from earlier work
[5] = test system: N-type VGCCs over the P/Q-type (Cav2.1); conditions: cited from earlier work
[6] = test system: CFA-injected mice (C57 Bl6); conditions: mouse, in vivo; remark: listed apart in the source
rat = conditions: in vivo, iv; cited from earlier work
[7] = biological target: T1, N-type calcium currents (Cav2.2), mouse DRG neurons; type: cell-based; remark: listed apart in the source
[8] = test system: excitatory monosynaptic transmission in the dorsal horn of the spinal cord; conditions: cited from earlier work
[9] = test system: N-type calcium channels with auxiliary subunits; conditions: cited from earlier work

Row | Compound | Grip strength, Peak tension (naïve mice (C57Bl/6j) [1]) [g] | Grip strength, Tension/weight (naïve mice (C57Bl/6j) [1]) | side-effects after systemic administration (mice (C57 Bl6)) | Rotarod performance, End rate (naïve mice (C57Bl/6j) [3]) [rpm] | Rotarod performance, Time to fall (naïve mice (C57Bl/6j) [3]) [s] | recovery from block, 30 min [4] | reversibility of ICa block [4] | ceiling effect [6] | rank order of potency to inhibit N-type calcium currents [7] | inhibition of Cav2.2 channel currents (Cav2.2 channel) | inhibition of excitatory monosynaptic transmission [8] | recovery from block in presence of β2a compared to β3 subunits [9] | maximal inhibition relative to CVID [7] | other results
1 | CSCC[C@@H]1NC(=O)[C@H](CC(C)C)NC(=O)[C@H](CCCCN)NC(=O)[C@H](CO)NC(=O)[C@@H]2CSSC[C@@H]3NC(=O)[C@H](CO)NC(=O)CNC(=O)[C@H](CO)NC(=O)[C@H](CSSC[C@H](N)C(=O)N[C@@H](CCCCN)C(=O)N[C@@H](CO)C(=O)N[C@@H](CCCCN)C(=O)NCC(=O)N[C@@H](C)C(=O)N[C@@H](CCCCN)C(=O)N2)NC(=O)[C@H](CSSC[C@@H](C(N)=O)NC(=O)[C@H](CCCNC(=N)N)NC(=O)CNC(=O)[C@H](C(C)C)NC(=O)[C@H]([C@@H](C)O)NC(=O)CNC(=O)[C@H](CO)NC3=O)NC(=O)[C@H](CC(=O)O)NC(=O)[C@H](Cc2ccc(O)cc2)NC1=O [CVID] (H-CKSKGAKCSKLMYDCCSGSCSGTVGRC-NH2; disulfide 1-16, 8-20, 15-27) | 121 ± 5.7 | 5.7 ± 0.3 | not accompanied by side-effects such as motor deficits or sedation | 18 ± 1.4 | 40 ± 4.1 | no recovery was observed | completely irreversible; also recorded: no recovery was observed | reaching a ceiling effect | least potent |  |  |  |  | effect on automated von Frey measure [2]: both measures appeared to be sensitive to subcutaneous injection of CVID; also recorded: partially reversed; Recovery from block [4]: -1 ± 5 % of inhibition; reversibility of inhibition (Cav2.2 channel): irreversible inhibition; selectivity for N-type VGCCs over P/Q-type [5]: higher selectivity for N-type VGCCs over the P/Q-type (Cav2.1); selectivity for N-type calcium channels [5]: high selectivity for N-type calcium channels; effect on automated von Frey and incapacitance measures: incapacitance [6]: both measures appeared to be sensitive to subcutaneous injection of CVID; also recorded: partially reversed; reversal of incapacitance at peak time of action (2 h) [6]: significant reversal; dose at which response reaches a ceiling ([6]; sc): 0.2 mg/kg; peak time of action ([6]; sc): 2 h; antihyperalgesic effects (rat): dose-dependent antihyperalgesic effects; cardiovascular side effects (rat): without serious cardiovascular side effects; Log [IC50] [7]: -7.12 ± 0.04; Maximal Inhibition of ICa [7]: 52 ± 2 % of total; block of high-voltage activated ICa [7]: block of high-voltage activated ICa; inhibition of total ICa (Figure 1B) [7]: about 40%
2 | C[C@@H]1NC(=O)CNC(=O)[C@H](CCCCN)NC(=O)CNC(=O)[C@H](CCCCN)NC(=O)[C@@H](N)CSSC[C@@H]2NC(=O)[C@@H]3CSSC[C@@H](C(N)=O)NC(=O)[C@H](CCCNC(=N)N)NC(=O)CNC(=O)[C@H](CO)NC(=O)[C@H](CCCNC(=N)N)NC(=O)[C@H](CSSC[C@H](NC(=O)[C@H](CO)NC1=O)C(=O)N[C@@H](CCCNC(=N)N)C(=O)N[C@@H](CCCNC(=N)N)C(=O)N[C@@H]([C@@H](C)O)C(=O)N[C@@H](CO)C(=O)N[C@@H](Cc1ccc(O)cc1)C(=O)N[C@@H](CC(=O)O)C(=O)N3)NC(=O)[C@H](CO)NC(=O)CNC(=O)[C@H]([C@@H](C)O)NC2=O [CVIE] | 121 ± 6.9 | 5.5 ± 0.3 | not accompanied by side-effects such as motor deficits or sedation | 17 ± 1.4 | 36 ± 4.1 | no recovery was observed | completely irreversible; also recorded: no recovery was observed | not seen with CVIE; also recorded: did not appear to reach a ceiling at the highest dose tested | most potent | potently and reversibly inhibited | reversibly inhibited | much greater | very similar to that of CVID | overall significance of AUC data, doses ([6]; sc): 2.0 mg/kg; potency versus CVID (AUC) ([6]; sc): not CVID at any dose; reversal of incapacitance relative to another peptide (CVIE vs CVID) ([6]; sc): did not reveal any significant differences; also recorded: not significantly greater than CVID; potency at ICa inhibition compared to CVID [7]: more than ten-fold compared to CVID
3 | CC(C)C[C@@H]1NC(=O)[C@H](CCCNC(=N)N)NC(=O)[C@@H]2CSSC[C@@H]3NC(=O)[C@H](CO)NC(=O)[C@H](C)NC(=O)CNC(=O)[C@H](CCCCN)NC(=O)CNC(=O)[C@H](CCCCN)NC(=O)[C@@H](N)CSSC[C@H](NC(=O)[C@H](CSSC[C@@H](C(N)=O)NC(=O)[C@H](CCCNC(=N)N)NC(=O)CNC1=O)NC(=O)[C@H](CC(=O)O)NC(=O)[C@H](Cc1ccc(O)cc1)NC(=O)[C@H](CO)NC(=O)[C@H]([C@@H](C)O)NC(=O)[C@H](CCCNC(=N)N)NC(=O)[C@H](CCCNC(=N)N)NC3=O)C(=O)N[C@@H]([C@@H](C)O)C(=O)NCC(=O)N[C@@H](CO)C(=O)N2 [CVIF] (H-CKGKGASCRRTSYDCCTGSCRLGRC-NH2; disulfide 1-16, 8-20, 15-25) | 121 ± 7.7 | 5.4 ± 0.4 |  | 17 ± 1.0 | 36 ± 3.0 |  | partially reversible; also recorded: Partial recovery |  |  | potently and reversibly inhibited | reversibly inhibited | much greater | very similar to that of CVID | 
